Our source for the Ki values is patent US9718821B2, “Pyridopyrimidinone inhibitors of kinases” (AbbVie Inc., priority 2012, dated 2017).

T1 sequence (P30291 whole entry): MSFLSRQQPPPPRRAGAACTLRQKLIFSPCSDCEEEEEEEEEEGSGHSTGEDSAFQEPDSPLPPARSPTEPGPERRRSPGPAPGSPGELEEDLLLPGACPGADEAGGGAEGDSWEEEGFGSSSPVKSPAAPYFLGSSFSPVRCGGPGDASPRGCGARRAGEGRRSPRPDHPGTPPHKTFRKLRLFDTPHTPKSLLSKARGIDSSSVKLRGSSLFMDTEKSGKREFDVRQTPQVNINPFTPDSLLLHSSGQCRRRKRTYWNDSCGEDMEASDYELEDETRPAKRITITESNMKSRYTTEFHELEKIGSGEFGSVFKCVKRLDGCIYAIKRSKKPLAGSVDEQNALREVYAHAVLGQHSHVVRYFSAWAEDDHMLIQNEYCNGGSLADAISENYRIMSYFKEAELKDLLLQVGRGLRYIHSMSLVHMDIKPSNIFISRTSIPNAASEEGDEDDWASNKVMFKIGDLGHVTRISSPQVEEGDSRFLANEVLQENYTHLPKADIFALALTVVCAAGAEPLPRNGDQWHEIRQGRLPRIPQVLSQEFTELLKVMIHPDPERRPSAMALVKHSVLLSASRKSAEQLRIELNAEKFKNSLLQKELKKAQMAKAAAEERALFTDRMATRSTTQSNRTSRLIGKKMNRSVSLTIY

The assay addresses T1, GST-tagged-Wee1 kinase (Homo sapiens, UniProt P30291).
T1 construct: purchased Carnabio 05-177
In words: Wee1 time-resolved fluorescence equilibrium binding assay (displacement of Oregon Green-labeled ATP-competitive kinase probe). To be noted: enzyme binding data; GST-tagged-Wee1 kinase 2 nM, fluorescent probe 300 nM, inhibitor 0.003 to 10 micromolar, 1 hour incubation; read-out: Wee-1 binding (Ki nM). A digest of the protocol: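 Competitive TR-fluorescence equilibrium binding with GST-Wee1; inhibitors displace a rapidly reversible Oregon Green-labelled ATP-competitive probe. Ki values derived from probe displacement.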
In general, Ki refers to the dissociation constant of the complex between target and ligand, obtained from inhibition or displacement. For `C=Cc1cn(-c2c(Cl)cccc2Cl)c(=O)c2cnc(Nc3ccc4c(c3)CCNC4)nc12` [Example 59, 6-(2,6-dichlorophenyl)-8-ethenyl-2-(1,2,3,4-tetrahydroisoquinolin-6-ylamino)pyrido[4,3-d]pyrimidin-5(6H)-one], the inhibition constant (Ki) turned out to be 0.1 nM.

For `Cc1cccc(C)c1-n1cc(C)c2nc(Nc3ccc4c(c3)CNCC4)ncc2c1=O` [Example 126, 6-(2,6-dimethylphenyl)-8-methyl-2-(1,2,3,4-tetrahydroisoquinolin-7-ylamino)pyrido[4,3-d]pyrimidin-5(6H)-one], the Ki is 0.4 nM.

As for `CN(C)C1CCN(c2ccc(Nc3ncc4c(=O)n(-c5c(Cl)cccc5Cl)cc(CF)c4n3)cc2)CC1` [Example 111, 6-(2,6-dichlorophenyl)-2-({4-[4-(dimethylamino)piperidin-1-yl]phenyl}amino)-8-(fluoromethyl)pyrido[4,3-d]pyrimidin-5(6H)-one], the Ki stood at 0.2 nM.

`Cc1cn(-c2ccccc2Cl)c(=O)c2cnc(Nc3ccc4c(c3)CNCC4)nc12` [Example 98, 6-(2-chlorophenyl)-8-methyl-2-(1,2,3,4-tetrahydroisoquinolin-7-ylamino)pyrido[4,3-d]pyrimidin-5(6H)-one]: the inhibition constant (Ki) turned out to be 0.5 nM.

Take `Cc1cccc(C)c1-n1cc(C)c2nc(Nc3ccc(N4CCN(CCCN(C)C)CC4)cc3)ncc2c1=O` [Example 139, 2-[(4-{4-[3-(dimethylamino)propyl]piperazin-1-yl}phenyl)amino]-6-(2,6-dimethylphenyl)-8-methylpyrido[4,3-d]pyrimidin-5(6H)-one]: the Ki was 2.1 nM.

With `Cc1cccc(F)c1-n1cc(C)c2nc(Nc3ccc4c(c3)CNCC4)ncc2c1=O` [Example 103, 6-(2-fluoro-6-methylphenyl)-8-methyl-2-(1,2,3,4-tetrahydroisoquinolin-7-ylamino)pyrido[4,3-d]pyrimidin-5(6H)-one], the Ki was 0.9 nM.

Turning to `Cc1n[nH]c(C)c1-n1cc(C)c2nc(Nc3ccc4c(c3)CNCC4)ncc2c1=O` [Example 123, 6-(3,5-dimethyl-1H-pyrazol-4-yl)-8-methyl-2-(1,2,3,4-tetrahydroisoquinolin-7-ylamino)pyrido[4,3-d]pyrimidin-5(6H)-one], the Ki came to 1.3 nM.

Regarding `O=c1c2cnc(Nc3ccc4c(c3)CNCC43CC3)nc2c(C(F)F)cn1-c1c(Cl)cccc1Cl` [Example 86, 6-(2,6-dichlorophenyl)-8-(difluoromethyl)-2-(2′,3′-dihydro-1′H-spiro[cyclopropane-1,4′-isoquinolin]-7′-ylamino)pyrido[4,3-d]pyrimidin-5(6H)-one], the Ki worked out at 0.305 nM.

Turning to `Cc1cn(-c2c(Cl)cccc2Cl)c(=O)c2cnc(Nc3ccc(NC4CCN(C)C4)cc3)nc12` (stereo not drawn) [Example 125, 6-(2,6-dichlorophenyl)-8-methyl-2-({4[(1-methylpyrrolidin-3-yl)amino]phenyl}amino)pyrido[4,3-d]pyrimidin-5(6H)-one], the Ki was determined as 0.3 nM.

`Cc1cn(-c2c(F)cccc2Cl)c(=O)c2cnc(Nc3ccc4c(c3)CNCC43CC3)nc12` [Example 74, 6-(2-chloro-6-fluorophenyl)-2-(2′,3′-dihydro-1′H-spiro[cyclopropane-1,4′-isoquinolin]-7′-ylamino)-8-methylpyrido[4,3-d]pyrimidin-5(6H)-one]: the Ki amounted to 0.6 nM.

`O=c1c2cnc(Nc3ccc4c(c3)CNCC43CC3)nc2c(CO)cn1-c1c(Cl)cccc1Cl` [Example 57, 6-(2,6-dichlorophenyl)-2-(2′,3′-dihydro-1′H-spiro[cyclopropane-1,4′-isoquinolin]-7′-ylamino)-8-(hydroxymethyl)pyrido[4,3-d]pyrimidin-5(6H)-one]: the Ki was found to be 0.1 nM.

As for `CN(C)C1Cc2ccc(Nc3ncc4c(=O)n(-c5c(Cl)cccc5Cl)cc(C(F)F)c4n3)cc2C1` (stereo not drawn) [Example 83, 6-(2,6-dichlorophenyl)-8-(difluoromethyl)-2-{[2-(dimethylamino)-2,3-dihydro-1H-inden-5-yl]amino}pyrido[4,3-d]pyrimidin-5(6H)-one], the Ki is 0.2 nM.
